Source: patent US20260152527A1, “NOVEL MELANOCORTIN ANALOGS” (priority 2022, published 2026)
In brackets after ≈: the same amount, converted by molar mass. Read-outs that look alike come from different tables or passages of the source. Positions of bridges follow the written chain, without caps; N, C: chain ends. Non-standard residues stand in square brackets, D forms with d. Residues, ends and D or L forms follow the SMILES beside them. Triazole bridges read from a SMILES are 1,4-linked. *: point of attachment. Benzoyl(3,5-(OH)2) = O=C(c1cc(O)cc(O)c1)*; Lys(N3) = [N-]=[N+]=NCCCC[C@H](N)C(=O)O; dPhe(4-F) = N[C@H](Cc1ccc(F)cc1)C(=O)O; NMeH = CN[C@@H](Cc1c[nH]cn1)C(=O)O; NMeR = CN[C@@H](CCCNC(=N)N)C(=O)O; dNMeF = CN[C@H](Cc1ccccc1)C(=O)O; Aad = N[C@@H](CCCC(=O)O)C(=O)O; Nle = CCCC[C@H](N)C(=O)O; Pra = C#CC[C@H](N)C(=O)O

Tests used:
human recombinant MC1R = molecular target: T1, human recombinant MC1R (Homo sapiens, UniProt Q01726); assay: cyclic AMP (cAMP) functional assay, MC1R stable cell line (CHO-K1); format: cell-based; settings: for IC50: cAMP functional assay;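 on all read-outs here: cells with test compound for 60 min at room temperature in buffer containing IBMX, then cAMP quantified by Eu-cAMP tracer and ULight anti-cAMP detection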
T1 construct: host or cells: CHO-K1
T1 sequence (Q01726 whole entry): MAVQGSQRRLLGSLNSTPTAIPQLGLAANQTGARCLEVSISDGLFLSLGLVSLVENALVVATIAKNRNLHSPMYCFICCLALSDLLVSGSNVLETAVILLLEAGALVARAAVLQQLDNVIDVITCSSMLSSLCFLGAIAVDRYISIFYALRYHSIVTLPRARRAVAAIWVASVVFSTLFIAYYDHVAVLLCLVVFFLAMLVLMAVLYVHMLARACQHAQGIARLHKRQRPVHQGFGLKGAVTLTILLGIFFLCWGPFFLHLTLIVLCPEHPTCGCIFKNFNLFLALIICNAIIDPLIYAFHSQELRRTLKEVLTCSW
Description: The cyclic AMP (cAMP) functional assay was performed on a human recombinant MC1R stable cell line (CHO-K1, GenScript). The cells were cultured at 37° C. and 5% CO2 with culture medium (90% Ham's F-12K (Kaighn's)+10% FBS+400 μg/mL G418). […] Then, 100 nL of compounds were transferred to the assay plate by the Echo machine. Cells were washed with PBS and then detached by incubation with 0.05% (w/v) Trypsin EDTA at 37° C. for 2 to 5 mins. Cells were collected with stimulation buffer (1×HBSS with 5 mM HEPES+0.2 mM IBMX+0.1% BSA) and 10 ul of cells (the density of 2,500 cells/well) solution was transferred to assay plate, centrifuged at 600 rpm for 3 min and then incubated with compounds at room temperature for 60 min. After that, 5 μL 4×Eu-cAMP tracer solution and 5 μL 4×ULight™-anti-cAMP solution was added into the cells, centrifuged at 600 rpm for 3 min and incubated for 60 min. The cAMP signal was detected with Envision® Multimode Plate Reader (PerkinElmer).

human recombinant MC3R = molecular target: T2, human recombinant MC3R (Homo sapiens, UniProt P41968); assay: Ca2+ signalling functional assay, MC3R stable cell line (CHO-K1/Gα15); format: cell-based; settings: calcium flux functional assay
T2 construct: host or cells: CHO-K1/Gα15
T2 sequence (P41968 whole entry): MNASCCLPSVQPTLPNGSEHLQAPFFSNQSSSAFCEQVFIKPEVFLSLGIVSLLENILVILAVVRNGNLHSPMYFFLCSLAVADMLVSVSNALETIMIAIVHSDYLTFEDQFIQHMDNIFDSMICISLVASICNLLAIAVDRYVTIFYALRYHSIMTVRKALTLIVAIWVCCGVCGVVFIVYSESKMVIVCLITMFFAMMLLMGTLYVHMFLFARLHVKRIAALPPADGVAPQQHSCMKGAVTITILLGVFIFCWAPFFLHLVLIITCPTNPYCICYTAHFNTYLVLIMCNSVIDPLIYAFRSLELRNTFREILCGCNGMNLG
Description: The Ca^2+ signalling functional assay was performed on a human recombinant MC3R stable cell line (CHO-K1/Gα15, GenScript). The cells were cultured at 37° C. and 5% CO2 with culture medium (90% Ham's F-12K (Kaighn's)+10% FBS+200 μg/mL Zeocin+100 μg/mL Hygromycin B). Cells were washed with PBS and then detached by incubation with 0.05% (w/v) Trypsin EDTA at 37° C. for 2-5 mins. Detached cells were suspended in Ham's F-12K (Kaighn's) (containing 10% FBS) and a 50 μL cell suspension was seeded into each well of a 384-well assay plate at a density of 10,000 cells/well. Cells were allowed to settle overnight at 37° C., 5% CO2. […] The compounds and reference compound ACTH were diluted in 4 folds starting from 50 uM. Then, 500 nL of compounds were transferred to the compound plate by the Echo machine. 30 uL assay buffer was added into the compounds plate and then shaken for 20-40 minutes. The plates were then placed on the FLIPR Tetra High-Throughput Cellular Screening System (FLIPR®, Molecular Devices) and 15 μL of the compound was added to each well, then calcium flux signal was measured.

human recombinant MC4R = molecular target: T3, human recombinant MC4R (Homo sapiens, UniProt P32245); assay: Ca2+ signalling functional assay, MC4R stable cell line (CHO-K1/Gα15); format: cell-based; settings: for IC50: calcium flux functional assay
T3 construct: host or cells: CHO-K1/Gα15
T3 sequence (P32245 whole entry): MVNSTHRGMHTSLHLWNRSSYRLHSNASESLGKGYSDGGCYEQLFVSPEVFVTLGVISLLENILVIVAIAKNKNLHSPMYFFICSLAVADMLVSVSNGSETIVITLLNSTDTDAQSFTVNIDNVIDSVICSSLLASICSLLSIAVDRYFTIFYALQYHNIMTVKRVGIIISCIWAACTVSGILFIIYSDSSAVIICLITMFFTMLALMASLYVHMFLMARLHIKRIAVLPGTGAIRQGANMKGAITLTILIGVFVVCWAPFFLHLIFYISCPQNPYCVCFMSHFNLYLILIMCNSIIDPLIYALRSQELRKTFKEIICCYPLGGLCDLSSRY
Description: The Ca^2+ signalling functional assay was performed on a human recombinant MC4R stable cell line (CHO-K1/Gα15, GenScript). The cells were cultured at 37° C. and 5% CO2 with culture medium (90% Ham's F-12K (Kaighn's)+10% FBS+8 μg/mL Puromycin+100 μg/mL Hygromycin B). Cells were washed with PBS and then detached by incubation with 0.05% (w/v) Trypsin EDTA at 37° C. for 2-5 mins. Detached cells were suspended in Ham's F-12K (Kaighn's) (containing 10% FBS) and a 50 μL cell suspension was seeded into each well of a 384-well assay plate at a density of 15,000 cells/well. Cells were allowed to settle overnight at 37° C., 5% CO2. The next day, the assay plate was centrifuged and the media was replaced with dye (1×) in assay buffer (containing HBSS, HEPES 20 mM and probenecid 1 mM) and incubated for 1 h at 37° C. […] Then, 100 nL of compounds were transferred to the compound plate by the Echo machine. 30 μL assay buffer was added to the compounds plate and then shaken for 20 to 40 minutes. The plates were placed on the FLIPR and 15 μL of the compound was added to each well, then calcium flux signal was measured.

human recombinant MC5R = molecular target: T4, human recombinant MC5R (Homo sapiens, UniProt P33032); assay: Ca2+ signalling functional assay, MC5R stable cell line (CHO-K1/Ga15); format: cell-based
T4 construct: host or cells: CHO-K1/Ga15
T4 sequence (P33032 whole entry): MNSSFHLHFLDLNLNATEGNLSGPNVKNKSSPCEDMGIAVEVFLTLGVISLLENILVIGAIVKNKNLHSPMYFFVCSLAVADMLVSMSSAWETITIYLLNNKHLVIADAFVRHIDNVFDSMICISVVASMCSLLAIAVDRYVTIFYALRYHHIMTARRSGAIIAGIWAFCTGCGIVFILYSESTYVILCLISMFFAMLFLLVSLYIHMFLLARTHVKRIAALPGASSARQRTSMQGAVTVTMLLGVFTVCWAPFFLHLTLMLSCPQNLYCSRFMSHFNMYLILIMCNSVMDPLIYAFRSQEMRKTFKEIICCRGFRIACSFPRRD

[1] = Thermodynamic solubility study in water; format: physicochemical
Description: The study was conducted in water. Water was added into compound powder to make a 10 mg/mL solution. Sample tubes were shaken at the vibrator for 1 hour (1000 rpm) and then equilibrated overnight at room temperature. Samples were centrifuged at 12000 rpm for 10 min to precipitate undissolved particles. Supernatants were transferred from tubes to a new plate. An aliquot of the supernatant after centrifugation was taken from each well, then analyzed by LC-MS/MS. The concentration of the supernatants was quantified by a standard curve.

[2] = rabbit
Description: (§1) To evaluate the effects of the peptide formulations following topical administration and subconjunctival injection a study in rabbits was undertaken. Animals were acclimated to the study and, upon completion of the acclimation period, each animal was physically examined for determination of suitability for study participation. Animals determined to be in good health were randomized into study groups to achieve averaged mean body weight in each group. (N=24; 3 animals per study group) Animals will be uniquely identified by corresponding cage card number and ear tag.
(§2) For topical ocular dosing the designated peptide formulations (35 L) were administered to the eye of each animal using a calibrated pipette. With the animal manually restrained, the upper eyelid of the eye was gently elevated to expose the cornea. Treatment was then be applied to the cornea without contacting the eye with the pipette tip. One topical drop was applied per eye for four days. Tissue collection (aqueous humor) occurred 30 minutes after last dose.
(§3) A veterinary ophthalmologist performed complete ocular examinations using a slit lamp biomicroscope and indirect ophthalmoscope to evaluate ocular surface morphology and anterior and posterior segment inflammation on all animals prior to injection to serve as a baseline for enrollment into the study as well as on specific study days. Animals were not tranquilized for the examinations.
(§4) At least 1.0 mL of whole blood was drawn from the marginal ear vein or cardiac puncture (terminal bleed only) into K2EDTA tubes for plasma collection. After collection, the tubes were gently mixed by inverting the tubes 5-8 times. Blood samples were stored on wet ice prior to plasma processing. The samples were centrifuged at 4° C. for 10 minutes at 2000 g in a swinging bucket refrigerated centrifuge. Within 20 minutes of the blood collection time, the clear plasma was transferred to prelabelled polypropylene tubes, snap frozen, and stored frozen at approximately −80° C.
(§5) Following euthanasia, eyes were enucleated and marked at the 12:00 position. Aqueous humor was removed via a 27 or 30 gauge syringe following a 10-15 second rinse with PBS and blot with Kimwipe, and snap frozen by immersing in liquid nitrogen. The whole globe was then snap frozen in liquid nitrogen and stored at −80° C. to be held for potential dissection. All samples were placed into individual vials and weighed. The plasma and aqueous humor were collected.
(§6) The peptides were evaluated for their ocular tolerability and pharmacokinetics following repeated (QID×4 days) topical instillation or a single subconjunctival injection in rabbits. The study examined penetration into the anterior chamber and concentrations in the plasma by measuring at a single time point.

in vivo = settings: rabbit, topical or ocular, 3 mg/ml solution, 35 L per eye, Concentrations (ng/mL) in Rabbit Aqueous Humor
Description: as §1, §2, §3, §4, §5, §6

[3] = In vivo topical administration tissue distribution study, minipig; settings: topical 5 mg/mL BID
Description: Animals were acclimated to the study environment for a minimum of 1 week. […] Examinations included, but were not limited to, the skin and external ears, eyes, and abdomen, neurological behavior, and general body condition.
Treatment was administered twice daily (BID) with approximately 6-8 hours between each BID dose, with tissue collection one hour after the last dose. Tissues and blood collected include plasma, aqueous humor, iris/ciliary body, vitreous humor, eye cup containing the retinal pigment epithelium, choroid, sclera, cornea, retina, optic nerve, and brain.
Blood (3 mL) was collected IV or ICAR for terminal collections and placed into K2EDTA tubes for plasma acquisition. […] Blood samples were stored on wet ice for up to 30 minutes prior to plasma processing.
Following euthanasia, eyes were enucleated and rinsed twice with fresh ice-cold PBS. Aqueous humor was removed via a 27 or 30 G syringe, weighed in polypropylene screw cap tubes, and snap frozen by immersing in liquid nitrogen. Eyes were dissected while frozen. All tissues were placed into individual vials, weighed, and snap frozen. The brain was collected and weighed. The hypothalamus, hippocampus and remaining brain was then dissected and weighed. 100-200 mg of each section was placed in pre-weighed polypropylene tubes, reweighed, and snap frozen. The remaining tissue was discarded. All tissues were stored frozen at −80° C. on dry ice.
The observed distribution pattern was consistent with that observed in the rat study. […] As also shown in FIG. 14, all three peptides were detected in the CNS of the animals, with no behavioral or metabolic changes noted in these animals despite the significant exposure. The foregoing results therefor confirm that the peptides disclosed herein can be delivered topically for retinal indications.

IC50 (human recombinant MC1R) [nM] | IC50 (human recombinant MC3R) [nM] | IC50 (human recombinant MC5R; calcium flux functional assay) [nM] | SMILES | EC50 (human recombinant MC4R) [nM] | EC50 (human recombinant MC5R) [nM] | Topical Ocular Permeability (nM ± SEM) [2] [nM] | also measured
2.68 | > 50000 | 195 | CCCC[C@H](NC(C)=O)C(=O)N[C@H]1CCCCn2cc(nn2)C[C@@H](C(N)=O)NC(=O)[C@H](Cc2c[nH]c3ccccc23)NC(=O)[C@H](CCCNC(=N)N)N(C)C(=O)[C@@H](Cc2ccccc2)NC(=O)[C@H](Cc2c[nH]cn2)N(C)C1=O [KR-052, Ac-Nle-[Lys(N3)-NMeHis-DPhe-NMeArg-Trp-Pra]-NH2] (Ac-[Nle][Lys(N3)][NMeH][dF][NMeR]W[Pra]-NH2; triazole 2-7) |  |  |  | IC50 (human recombinant MC4R): 122 nM
 |  | 140 | CCCC[C@H](NC(C)=O)C(=O)N[C@H]1CCCCn2cc(nn2)C[C@@H](C(N)=O)NC(=O)[C@H](Cc2c[nH]c3ccccc23)NC(=O)[C@H](CCCNC(=N)N)NC(=O)[C@@H](Cc2ccccc2)NC(=O)[C@H](Cc2cnc[nH]2)NC1=O [KR-009, Ac-Nle-[Lys(N3)-His-DPhe-Arg-Trp-Pra]-NH2] (Ac-[Nle][Lys(N3)]H[dF]RW[Pra]-NH2; triazole 2-7) | 45.7 | 140 | 1.43 ± 1.01 | solubility [1]: > 5000 µg/mL
> 50 | > 50000 |  | CCCC[C@H](NC(C)=O)C(=O)N[C@H]1CCCCn2cc(nn2)C[C@@H](C(N)=O)NC(=O)[C@H](Cc2c[nH]c3ccccc23)NC(=O)[C@H](CCCNC(=N)N)NC(=O)[C@@H](Cc2ccccc2)N(C)C(=O)[C@H](Cc2c[nH]cn2)NC1=O [KR-044, Ac-Nle-[Lys(N3)-His-(NMe-Dphe)-Arg-Trp-Pra]-NH2] (Ac-[Nle][Lys(N3)]H[dNMeF]RW[Pra]-NH2; triazole 2-7) |  |  |  | 

Second part, the compound before the results:

SMILES | IC50 (human recombinant MC1R) [nM] | IC50 (human recombinant MC3R) [nM] | IC50 (human recombinant MC5R; calcium flux functional assay) [nM] | EC50 (human recombinant MC4R) [nM] | EC50 (human recombinant MC5R) [nM] | Topical Ocular Permeability (nM ± SEM) [2] [nM] | also measured
CCCC[C@H](NC(=O)c1cc(O)cc(O)c1)C(=O)N[C@H]1CCCCn2cc(nn2)C[C@@H](C(=O)N[C@@H](CCCC(N)=O)C(N)=O)NC(=O)[C@H](Cc2c[nH]c3ccccc23)NC(=O)[C@H](CCCNC(=N)N)NC(=O)[C@@H](Cc2ccc(F)cc2)NC(=O)[C@H](Cc2c[nH]cn2)NC1=O [KR-071, HyBA-Nle-[Lys(N3)-His-Dphe(4-F)-Arg-Trp-Pra]-Hgln-NH2] ({Benzoyl(3,5-(OH)2)}-[Nle][Lys(N3)]H[dPhe(4-F)]RW[Pra][Aad](NH2)-NH2; triazole 2-7) | 0.0023 |  | 73.9 | 103 | 73.9 | 2.5 ± 0.2 | solubility ([1]; Table 8, read-out: Solubility): 6100 µg/mL (≈ 4.68 mM); EC50 (human recombinant MC1R): 0.0023 nM; level at 0.5 h (in vivo): 2.84 ng/mL
CCCC[C@H](NC(=O)c1cc(O)cc(O)c1)C(=O)N[C@H]1CCCCn2cc(nn2)C[C@@H](C(N)=O)NC(=O)[C@H](Cc2c[nH]c3ccccc23)NC(=O)[C@H](CCCNC(=N)N)NC(=O)[C@@H](Cc2ccccc2)NC(=O)[C@H](Cc2c[nH]cn2)NC1=O [KR-073, HyBA-Nle-[Lys(N3)-His-DPhe-Arg-Trp-Pra]-NH2] ({Benzoyl(3,5-(OH)2)}-[Nle][Lys(N3)]H[dF]RW[Pra]-NH2; triazole 2-7) | 0.0041 |  | 134 | 13.9 | 134 | 12.3 ± 3.8 | solubility ([1]; Table 8, read-out: Solubility): 7690 µg/mL (≈ 6.73 mM); EC50 (human recombinant MC1R): 0.0041 nM
CSCC[C@H](NC(=O)[C@H](CO)NC(=O)[C@H](Cc1ccc(O)cc1)NC(=O)[C@H](CO)NC(C)=O)C(=O)N[C@@H](CCC(=O)O)C(=O)N[C@@H](Cc1c[nH]cn1)C(=O)N(C)[C@@H](Cc1ccccc1)C(=O)N[C@@H](CCCNC(=N)N)C(=O)N[C@@H](Cc1c[nH]c2ccccc12)C(=O)NCC(=O)N[C@@H](CCCCN)C(=O)N1CCC[C@H]1C(=O)N[C@H](C(N)=O)C(C)C [KR-022, Ac-Ser-Tyr-Ser-Met-Glu-His-(NMe-Phe)-Arg-Trp-Gly-Lys-Pro-Val-NH2] | > 200 | > 50000 |  |  |  |  | 
CSCC[C@H](NC(=O)[C@H](CO)NC(=O)[C@H](Cc1ccc(O)cc1)NC(=O)[C@H](CO)NC(C)=O)C(=O)N[C@@H](CCC(=O)O)C(=O)N[C@@H](Cc1c[nH]cn1)C(=O)N(C)[C@H](Cc1ccccc1)C(=O)N[C@@H](CCCNC(=N)N)C(=O)N[C@@H](Cc1c[nH]c2ccccc12)C(=O)NCC(=O)N[C@@H](CCCCN)C(=O)N1CCC[C@H]1C(=O)N[C@H](C(N)=O)C(C)C [KR-025, Ac-Ser-Tyr-Ser-Met-Glu-His-(D-NMePhe)-Arg-Trp-Gly-Lys-Pro-Val-NH2] |  | > 50000 |  |  |  |  | 
CCCC[C@H](NC(C)=O)C(=O)N1CCC(=O)NCCN(CC(=O)N[C@@H](Cc2c[nH]c3ccccc23)C(N)=O)C(=O)[C@H](CCCNC(=N)N)NC(=O)[C@@H](Cc2ccccc2)NC(=O)[C@H](Cc2c[nH]cn2)NC(=O)C1 [KR-029, Ac-Nle-cyc(NGlu-His-DPhe-Arg-NDab)-Trp-NH2] | > 50 | > 50000 | > 10000 |  |  |  | IC50 (human recombinant MC4R): > 1000 nM
CCCC[C@H](NC(C)=O)C(=O)N[C@H]1CCCCn2cc(nn2)C[C@@H](C(N)=O)NC(=O)[C@H](Cc2c[nH]c3ccccc23)NC(=O)[C@H](CCCNC(=N)N)NC(=O)[C@@H](Cc2ccc(F)cc2)NC(=O)[C@H](Cc2c[nH]cn2)NC1=O [KR-049, Ac-Nle-[Lys(N3)-His-Dphe(4-F)-Arg-Trp-Pra]-NH2] (Ac-[Nle][Lys(N3)]H[dPhe(4-F)]RW[Pra]-NH2; triazole 2-7) | 0.019 |  | 25.2 | 16.1 | 25.2 | 23.9 ± 10.8 | solubility [1]: 9950 µg/mL (≈ 9.33 mM); EC50 (human recombinant MC1R): 0.019 nM; melanin binding ([3]; compared with K173 and K174): enhanced melanin binding; scleral and retinal exposure ([3]; compared with K173 and K174): decreased scleral and retinal exposure; corneal permeability ([3]; similar to rabbit study): enhanced corneal permeability
CCCC[C@H](NC(C)=O)C(=O)N[C@H]1CCCCn2cc(nn2)C[C@@H](C(=O)N[C@@H](CCCCN)C(N)=O)NC(=O)[C@H](Cc2c[nH]c3ccccc23)NC(=O)[C@H](CCCNC(=N)N)NC(=O)[C@@H](Cc2ccc(OC)cc2)NC(=O)[C@H](Cc2c[nH]cn2)NC1=O [KR-058, Ac-Nle-[Lys(N3)-His-DTyr(Me)-Arg-Trp-Pra]-Lys-NH2] (Ac-[Nle][Lys(N3)]H[dY](Me)RW[Pra]K-NH2; triazole 2-7) | 2.68 | > 50000 | 195 |  |  |  | IC50 (human recombinant MC4R): 122 nM
N=C(N)NCCC[C@@H]1NC(=O)[C@H](Cc2ccccc2)NC(=O)[C@H](Cc2c[nH]cn2)NC(=O)[C@H](CCC(=O)O)NC(=O)CSC[C@@H](C(N)=O)NC(=O)[C@H](Cc2c[nH]c3ccccc23)NC1=O [KR-011, Cyclo(-Ac-Glu-His-Phe-Arg-Trp-Cys)-NH2] ({CH2CO}-EHFRWC-NH2; thioether N-6 (inferred)) |  | > 50000 |  |  |  |  | MC5R IC50 (human recombinant MC5R; calcium flux functional assay): Not fit
